Common to all, as to assay: growth of human tumour cells (NCI), 48 h
In test [1] the test system is HS 578T breast.
Test [2] has as its system LOX IMVI melanoma.
The subject of test [3] is MDA-MB-231 breast.
Test [4] has as its system MOLT-4 leukemia.
For test [5], the system named is NCI-H23 lung.
The test system of test [6] is PC-3 prostate.
Test [7] concerns SF-539 CNS.
Test [8] deals with SN12C renal.
Test [9] deals with SW-620 colon.
Test [10] concerns SR leukemia.

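Compound exposure: 48 hours, 5 concentrations, 96-well plates. The concentration for full growth arrest is given as TGI.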

Take `CC1C2(C)OC(=N)C(C#N)(C(c3cccc([N+](=O)[O-])c3)O2)C1(C#N)C#N` (stereo unspecified): the TGI was more than 100 µM in test [1]; 36 µM in [2]; 32 µM in test [3]; more than 100 µM in [4]; more than 100 µM in [5]; more than 100 µM in [6]. Besides, the TGI in test [7] is 34.2 µM; in [8], 28.1 µM; in test [9], 31.3 µM.
For the compound `O=C(O)/C(Cc1ccc([N+](=O)[O-])cc1)=N\O`, the TGI in [1], in test [2], in [3], in test [5], in [6] and in test [7] was more than 100 µM in each case. The TGI in test [8] and in test [9] was more than 100 µM in each case.
As for `CC[C@H]1C=CCC[C@@]2(C[C@@H]3CC[C@H]4[C@@H](C(=O)OCCCCCCCCCCCCCCCC(=O)N(CCCN)C[C@@H](O)CCN)[C@@]5(CCC[C@@H](C)O5)NC(=[N+]34)N2)O1`, the TGI was found to be 3.4 µM in test [1]; 3.35 µM in test [2]; 2.84 µM in [4]; 3.51 µM in test [5]; 3.1 µM in test [6]; 2.78 µM in test [7]. For the same compound, the values for the TGI in [8], in test [10] and in test [9] were 9.33 µM, 3.78 µM and 6.99 µM, respectively.
For `COc1ccc(CN=C(N)N)c2ccccc12`, the TGI in [1] was 54.9 µM; in [2], more than 100 µM; in test [4] it was more than 100 µM; in test [5] it was more than 100 µM; in test [6], more than 100 µM; in test [7], 52.8 µM. The results for the TGI in test [8] and in [9] were 52.4 µM and more than 100 µM, respectively.
Consider `CCOC(=O)CNc1nc(=O)c2c(=O)oc(Cl)cc2o1`, for which the TGI worked out at 45.1 µM in [1]; 22.3 µM in test [2]; 59.1 µM in test [3]; 29.8 µM in [4]; 38.5 µM in [5]; 26 µM in test [6]. In addition, the TGI stood at 22 µM in test [7], 53.1 µM in [8] and 85.6 µM in [9].
Consider `O=CC12C3CCC1C2C(=O)C3` (stereo unspecified), for which the TGI in test [2], in test [3], in test [4], in test [5], in test [6] and in [7] was more than 100 µM throughout. Also, the TGI in test [8], in test [10] and in [9] was more than 100 µM throughout.
For the compound `CC(C)C(N)=O`, the TGI in [2], in [4], in test [5], in test [7], in [8] and in test [10] was more than 5000 µM throughout. Moreover, in test [9], the TGI was more than 5000 µM.
Consider `CC(C)C1=CC23CCC4C(C)(C(=O)O)CCCC4(C)C2CC1C1C(=O)N(c2ccccc2)C(=O)C13` (stereo unspecified), for which the TGI in test [2], in test [4], in [5], in test [7], in test [8] and in test [10] was more than 100 µM each time. In test [9], this compound gave a TGI of more than 100 µM.
Take `CCOP(=O)(OCC)C(N)c1ccc(Cl)cc1` (stereo unspecified): the TGI in test [1], in [2], in test [3], in test [4], in test [5] and in test [6] was more than 100 µM each time. In addition, the TGI in test [7], in test [8] and in [9] was more than 100 µM throughout.
Take `CC(=O)NC1=C[C@@H]([C@H]2COC(C)(C)O2)OC1=O`: the TGI in test [2], in test [4], in test [5], in test [7], in [8] and in test [9] was more than 100 µM throughout.
`COc1cc2cc(C(=O)N3CC(CCl)c4c3cc(N)c3ccccc43)[nH]c2c(OC)c1OC` (stereo unspecified): the TGI in [2] is 0.0103 µM; in test [3], 0.519 µM; in test [4], less than 0.01 µM; in [5], less than 0.01 µM; in test [6] it was less than 0.0114 µM; in test [8] it was less than 0.01 µM. Further, the TGI in test [10] is less than 0.01 µM; in test [9] it was more than 100 µM.
With `CC(=O)OC1COC(Nc2nc(NCc3ccccc3)n(C)c(=O)c2N=O)C(OC(C)=O)C1OC(C)=O` (stereo unspecified), the TGI in test [1], in [2], in [3], in [4], in [5] and in test [6] was more than 10 µM each time. The TGI in [7], in test [8] and in test [9] was more than 10 µM each time.
As for `COC(C)(C)C1(O)CCC(C)CC1=O` (stereo unspecified), the TGI in test [1], in test [4], in [5], in [6], in test [7] and in test [8] was more than 100 µM in each case. For the same compound, the TGI in test [10] and in test [9] was more than 100 µM throughout.
Take `O=C(N/N=C(/COc1ccc([N+](=O)[O-])cc1)N=Cc1ccncc1)c1ccncc1`: the TGI in test [2], in test [3], in test [4], in [5], in test [6] and in test [7] was more than 100 µM in each case. Further, the TGI in [8] and in test [9] was more than 100 µM throughout.
Turning to `Cc1csc(/N=C\c2c(O)c3ccccc3oc2=O)n1`, the TGI in [1] was 94.5 µM; in test [2], more than 100 µM; in test [3], 34.7 µM; in [4], more than 100 µM; in test [5], 33 µM; in test [6] it was more than 100 µM. Further, the TGI in test [7] and in test [9] was more than 100 µM in each case.
Consider `Cc1c2c(OCCN3CCCCC3)nn(C)c(=O)c2c(C)n1-c1ccccc1`, for which the TGI is more than 100 µM in test [1]; 51.1 µM in test [2]; more than 100 µM in test [3]; more than 100 µM in test [4]; more than 100 µM in test [5]; more than 100 µM in [6]. The TGI was 74.9 µM in [7], more than 100 µM in test [8] and more than 100 µM in [9].

(Values after PubChem BioAssay (NCI).)
